# ± gives the standard deviation of the averaged measurements.
# Key:
# Settings in all cases: 72 h
# HL-60 [1] = assay: area under dose-response curve (viability, 1 nM-10 uM) (fraction (0-1)); higher = more sensitive
# Procedure, shortened: (§1)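 Four-parameter log-logistic fits in drc and PharmacoGx supplied area under the curve where it is given. Underlying viability came from CellTiter-Glo, normalised to DMSO and proteasome-inhibitor wells, with the proteasome inhibitor at 10 μM. HL-60 cells in RPMI 1640 plus 10% FBS had been rescreened against the full library at five tenfold concentrations of 1–10,000 nM, in duplicate on 384-well plates, with DMSO or 100 nM of one of three metabolic inhibitors, for 72 h at 37 °C, 5% CO2.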
# HL-60 [2] = assay: cell viability (% survival relative to DMSO control); higher = less cytotoxic
# Procedure, shortened: as §1
# MV4-11 = system: MV4-11
# Procedure, shortened: (§2)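 The IC50 was derived from log-logistic dose–response fitting. Each of fifteen myeloid leukaemia cell lines, seeded in RPMI 1640 within its linear growth range, was exposed in 384-well plates to five tenfold doses (1 to 10,000 nM) in duplicate for 72 h at 37 °C and 5% CO2. Luminescent ATP viability readings were normalised to vehicle and to a positive control at 10 µM before four-parameter curve fitting.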
# KU-812 = system: KU-812
# Procedure, shortened: as §2
# MOLM-13 = system: MOLM-13
# Procedure, shortened: as §2
# KG-1 = system: KG-1
# Procedure, shortened: as §2
# KCL-22 = system: KCL-22
# Procedure, shortened: as §2
# LAMA-84 = system: LAMA-84
# Procedure, shortened: as §2
# THP-1 = system: THP-1
# Procedure, shortened: as §2
# BV-173 = system: BV-173
# Procedure, shortened: as §2
# K-562 = system: K-562
# Procedure, shortened: as §2
# Mono-Mac-6 = system: Mono-Mac-6
# Procedure, shortened: as §2
# NOMO-1 = system: NOMO-1
# Procedure, shortened: as §2
# ML-2 = system: ML-2
# Procedure, shortened: as §2
# HL-60 [3] = system: HL-60
# Procedure, shortened: as §2
# HEL = system: HEL
# Procedure, shortened: as §2
# SHI-1 = system: SHI-1
# Procedure, shortened: as §2
# [4] = co-treatment: GSK2194069 100 nM
# [5] = co-treatment: pictilisib 100 nM
# [6] = 0.001 µM, co-treatment: AZD3965 100 nM
# [7] = 0.001 µM, co-treatment: DMSO vehicle
# [8] = 0.001 µM, co-treatment: GSK2194069 100 nM
# [9] = 0.001 µM, co-treatment: pictilisib 100 nM
# [10] = 0.01 µM, co-treatment: AZD3965 100 nM
# [11] = 0.01 µM, co-treatment: DMSO vehicle
# [12] = 0.01 µM, co-treatment: GSK2194069 100 nM
# [13] = 0.01 µM, co-treatment: pictilisib 100 nM
# [14] = 0.1 µM, co-treatment: AZD3965 100 nM
# [15] = 0.1 µM, co-treatment: DMSO vehicle
# [16] = 0.1 µM, co-treatment: GSK2194069 100 nM
# [17] = 0.1 µM, co-treatment: pictilisib 100 nM
# [18] = 1 µM, co-treatment: AZD3965 100 nM
# [19] = 1 µM, co-treatment: DMSO vehicle
# [20] = 1 µM, co-treatment: GSK2194069 100 nM
# [21] = 1 µM, co-treatment: pictilisib 100 nM
# [22] = 10 µM, co-treatment: AZD3965 100 nM
# [23] = 10 µM, co-treatment: DMSO vehicle
# [24] = 10 µM, co-treatment: GSK2194069 100 nM
# [25] = 10 µM, co-treatment: pictilisib 100 nM
IC50 (cell viability) (MV4-11) [µM],IC50 (cell viability) (MOLM-13) [µM],IC50 (cell viability) (THP-1) [µM],IC50 (cell viability) (K-562) [µM],IC50 (cell viability) (HL-60 [3]) [µM],SMILES,area under dose-response curve (HL-60 [1]; co-treatment: AZD3965 100 nM),area under dose-response curve (HL-60 [1]; co-treatment: DMSO vehicle),area under dose-response curve (HL-60 [1]; [4]),area under dose-response curve (HL-60 [1]; [5]),cell viability (HL-60 [2]; [6]) [%],cell viability (HL-60 [2]; [7]) [%],cell viability (HL-60 [2]; [8]) [%],cell viability (HL-60 [2]; [9]) [%],cell viability (HL-60 [2]; [10]) [%],cell viability (HL-60 [2]; [11]) [%],cell viability (HL-60 [2]; [12]) [%],cell viability (HL-60 [2]; [13]) [%],cell viability (HL-60 [2]; [14]) [%],cell viability (HL-60 [2]; [15]) [%],cell viability (HL-60 [2]; [16]) [%],cell viability (HL-60 [2]; [17]) [%],cell viability (HL-60 [2]; [18]) [%],cell viability (HL-60 [2]; [19]) [%],cell viability (HL-60 [2]; [20]) [%],cell viability (HL-60 [2]; [21]) [%],cell viability (HL-60 [2]; [22]) [%],cell viability (HL-60 [2]; [23]) [%],cell viability (HL-60 [2]; [24]) [%],cell viability (HL-60 [2]; [25]) [%],IC50 (cell viability) (KU-812) [µM],IC50 (cell viability) (KG-1) [µM],IC50 (cell viability) (KCL-22) [µM],IC50 (cell viability) (LAMA-84) [µM],IC50 (cell viability) (BV-173) [µM],IC50 (cell viability) (Mono-Mac-6) [µM],IC50 (cell viability) (NOMO-1) [µM],IC50 (cell viability) (ML-2) [µM],IC50 (cell viability) (HEL) [µM],IC50 (cell viability) (SHI-1) [µM]
–,–,–,–,–,Cc1c2c(=O)n(-c3ccccc3Cl)[nH]c2cc(=O)n1Cc1ccccn1,< 0.0301,< 0.0301,< 0.0301,< 0.0301,103 ± 2.9,103 ± 1.8,101 ± 3.2,96.69 ± 0.41,103 ± 4.3,103 ± 1.3,105 ± 5,103 ± 18,96.9 ± 3.3,99.6 ± 8.5,98.8 ± 5.7,100 ± 1.9,98.6 ± 5.4,99.25 ± 0.98,101 ± 6.8,95.2 ± 3.8,96.6 ± 4,101 ± 8.3,96.5 ± 3.9,94.8 ± 2.1,–,–,–,–,–,–,–,–,–,–
–,–,–,–,–,O=C(Nc1ccccc1)c1cc([N+](=O)[O-])ccc1Cl [GW-9662],< 0.0301,< 0.0301,< 0.0301,< 0.0301,104 ± 4.8,100.8 ± 0.15,99.4 ± 3.7,106.5 ± 0.24,97.15 ± 0.3,103.27 ± 0.069,92.6 ± 11,96.8 ± 5.1,102 ± 3.9,100 ± 2.6,98.7 ± 5.5,97.9 ± 2.5,100 ± 2.4,100.8 ± 0.79,96.1 ± 1.9,99.3 ± 5.7,90.1 ± 20,95.6 ± 2.1,87.2 ± 8.5,94.4 ± 16,–,–,–,–,–,–,–,–,–,–
> 10,> 10,> 10,> 10,> 10,CC(C(=O)O)c1cccc(C(=O)c2ccccc2)c1 (configuration not stated) [Ketoprofen],–,–,–,–,–,–,–,–,–,–,–,–,–,–,–,–,–,–,–,–,–,–,–,–,> 10,> 10,> 10,> 10,> 10,> 10,> 10,> 10,> 10,> 10
> 10,> 10,> 10,> 10,> 10,Clc1ccccc1CN1CCc2sccc2C1 [Ticlopidine],–,–,–,–,–,–,–,–,–,–,–,–,–,–,–,–,–,–,–,–,–,–,–,–,> 10,> 10,> 10,> 10,> 10,> 10,> 10,> 10,> 10,> 10
–,–,–,–,–,CC(C(=O)O)C(=O)O [methylmalonate],< 0.0301,< 0.0301,< 0.0301,< 0.0301,100 ± 1.6,97.43 ± 0.96,101 ± 5.3,105 ± 14,96.1 ± 3,99.6 ± 0.36,97.9 ± 8.9,103 ± 6.5,81.8 ± 19,96.753 ± 0.087,95.2 ± 10,87.7 ± 20,107 ± 12,100.6 ± 0.51,106 ± 2.2,84.2 ± 32,98.6 ± 5.8,99 ± 3.8,103.3 ± 0.24,108.9 ± 0.38,–,–,–,–,–,–,–,–,–,–

# — the supplement of paper PMC8671470
